# Measurements as given in patent publication US9969743B2, “Urea and amide derivatives of aminoalkylpiperazines and use thereof” (Southern Research Institute, priority 2012, dated 2018).
# Assays:
# Type in all cases: in vivo
# [1] = system: Long Evans rats; experiment: Food self-administration under PR schedule of reinforcement; details: 3.75 mg dose vs 0, t(7)=0.43, p=0.66
# Procedure: In Vivo Studies. Effect on Food-Self administration. These studies were performed using Long Evans rats using standard protocols. Training and testing took place in ventilated and sound-attenuated operant chambers measuring 30×21×18 cm. Each chamber contained two levers, one light above each of the levers, and a food trough. Each lever was positioned 2.5 cm from the rod floor and the food trough (measuring 5×5 cm) was centered between the two levers. A different set of animals (n=8) was trained to press a lever reinforced by food under a FR1 schedule of reinforcement. […] Percentage of baseline BPs for food self-administration was analyzed using a dependent measures t-test comparing the 0 and 3.75 mg doses of 113.
# [2] = system: Rats; experiment: Cue-induced reinstatement of cocaine-seeking; details: ip injection of one of 3 doses 20 minutes before 1-h reinstatement session
# Procedure: In Vivo Studies. Effect on Reinstatement. Rats were trained to self-administer cocaine (1.0 mg/kg/injection) under a FR1 schedule of reinforcement in daily 3-h sessions and, after stable responding was established (as described above) the schedule was changed to FR3. After stable responding under the FR3 schedule was established, extinction training began. Stable responding was defined as follows: 12 consecutive sessions in which total rewards per session was greater than 20 and in which total rewards per session for the last three sessions was within ±10% of the mean of the three sessions. […] After extinction criteria were met each rat was tested in one 1-h reinstatement session; each rat received an ip injection of vehicle or one of 3 doses of the test compound and 20 minutes later was placed in the operant chamber. At the start of the reinstatement session the cocaine-associated cues (light on for 20 s and pump on for 4.5 s) were presented twice, once at 25 sec and again at 2 min into the session. Presses on the active lever illuminated the light and activated the pump.
# [3] = system: Long Evans rats; experiment: Cocaine-induced locomotor activity; details: 3.75, 7.5 or 15 mg/kg 10 minutes before 10 mg/kg of cocaine; p<0.05
# Procedure: (§1) In Vivo Studies. Effect on Locomotor Activity. These studies were performed using Long Evans rats using standard protocols. Locomotor activity chambers measuring 43×43×30 cm (l×w×h) were used for the locomotor activity experiments. Each chamber was equipped with eight photo-emitters positioned along the length of the chamber 6 cm above the floor, each paired directly opposite a photocell. Locomotor activity counts were registered when adjacent beams were broken consecutively. Before receiving any drug, the animals (n=96) were placed in locomotor activity chambers for habituation, for 2 hours per day for 3 consecutive days. Based on the locomotor activity score obtained during the third habituation session, animals were assigned into one of […]. […] For the 113 alone experiments, each of the four groups received one of 4 doses of 113 (0, 3.75, 7.5 or 15 mg/kg) 10 minutes prior to placement in the activity chambers. For the 113 cocaine interaction experiments, each of 4 groups were injected with one of the 4 doses of the compound (0, 3.75, 7.5 or 15 mg/kg) 10 minutes before receiving 10 mg/kg of cocaine as the second injection. […] The locomotor counts in the 113 alone and 113/cocaine experiments were analyzed using two separate mixed-design ANOVAs with 113 dose (between-groups) and 5-min bins (repeated measures) as factors. […]
# [4] = system: Long Evans rats; experiment: Cocaine self-administration under PR schedule of reinforcement
# Procedure: In Vivo Studies. Effect on Cocaine-Self administration. These studies were performed using Long Evans rats using standard protocols (Quinlan M. G. et al. Psychopharmacol. 2004, 175, 53-59; Ranaldi, R. et al. Behav. Pharmacol. 2011, 22, 347-353). Cocaine self-administration sessions were conducted in sixteen operant chambers; eight measuring 30×22×27 cm (l×w×h) and the other eight measuring 26×26×30 cm (l×w×h). Each chamber was situated inside a sound-attenuating box and was equipped with two retractable levers, a white light above each lever, and a tether. Polyethylene tubing, covered by the tether, connected the animal, through a fluid swivel, to a syringe in a syringe pump (Razel, 3.33 rpm). […] Each animal was tested with one dose of the D3 antagonist, randomly determined, at as many of the three cocaine doses as possible. After a particular test the animal's cocaine dose was changed to another one (randomly determined) and its baseline BP on the new dose was established. BP during the test session was expressed as the percentage of the average BP obtained during the last three baseline sessions. Percentage of baseline BP and final ratio (i.e. the number of lever presses required for the BP infusion) were analyzed using separate two-way analyses of variance (ANOVAs) with dose of 113 and dose of cocaine as between-groups factors. […]
# [5] = system: Long Evans rats; experiment: Spontaneous locomotor activity; details: all doses tested (3.75, 7.5, 15 mg/kg), any time during the test sessions
# Procedure: as §1
structure (smiles),measurement,setting,value
"CC(C)(C)c1nc(N2CCN(CCCCNC(=O)c3cn4ccccc4n3)CC2)cc(C(F)(F)F)n1 [Compound 113, N-(4-(4-(2-(tert-Butyl)-6-(trifluoromethyl)pyrimidin-4-yl)piperazin-1-yl)butyl)imidazo[1,2-a]pyridine-2-carboxamide]",percentage of baseline BP for food self-administration,[1],did not affect food self-administration
same,cue-induced reinstatement (presses on the active lever),[2],strongly reduced in a dose-related fashion
same,cocaine-induced locomotor activity,[3],significantly reduce cocaine-induced locomotor activity in a dose-related fashion
same,"percentage of baseline BP for cocaine under PR schedule, dose relation","[4]; 3.75, 7.5 and 15 mg/kg intraperitoneally 10 minutes prior to session, cocaine 0.375, 0.75 or […]",dose-related reduction in the percentage of baseline BPs
same,percentage of baseline BPs for cocaine compared to vehicle (Tukey post hoc),"[4]; 3.75, 7.5 or 15 mg of 113, ps<0.05",significant reductions in the percentage of baseline BPs
same,"spontaneous locomotor activity, overall",[5],none of the doses tested produced significant effects on spontaneous locomotor activity
